Test results reported in US9221836B2, “Heterocyclic compound and use thereof” (TAKEDA PHARMACEUTICAL COMPANY LIMITED, priority 2008, dated 2015).
Where a chain is given by its changes, count along the chain named. Counter-ions that a name gives are not always drawn.

These compounds were tested against T1, Human renin (Homo sapiens, UniProt P00797) (assay: Human renin inhibition, angiotensin I quantified by EIA). Settings: read-out: Human renin inhibitory activity: inhibitory activity (%) at 0.1 μM.
T1 sequence (P00797 67-406): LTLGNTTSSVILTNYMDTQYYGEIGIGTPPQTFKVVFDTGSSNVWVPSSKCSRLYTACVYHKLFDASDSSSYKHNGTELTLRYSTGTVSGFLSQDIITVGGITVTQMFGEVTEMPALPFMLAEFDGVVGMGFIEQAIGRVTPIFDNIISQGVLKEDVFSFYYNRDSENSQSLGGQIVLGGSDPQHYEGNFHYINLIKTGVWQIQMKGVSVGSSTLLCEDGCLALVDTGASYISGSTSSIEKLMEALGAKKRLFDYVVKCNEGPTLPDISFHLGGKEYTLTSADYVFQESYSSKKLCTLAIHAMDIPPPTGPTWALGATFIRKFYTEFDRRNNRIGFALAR
Procedure: (6) Measurement of Renin Inhibition Value
As a substrate for renin activity measurement, the angiotensinogen mentioned in (5) above was used. 1 μl each of the test compound (containing 100% DMSO) was added to each well of a 384-well plate (ABgene). Renin was diluted with a buffer solution for reaction (20 mM sodium phosphate (pH 7.4)) to a concentration of 57 pM, and 14 μl each of the dilution was added to each well. The dilution was left to stand at 37° C. for 10 min, and then 5 μl of each of a 6 μM solution of substrate angiotensinogen was added to each well to initiate the reaction. […] The amount of angiotensin I produced by an enzyme reaction was quantified by Enzyme Immuno Assay (EIA) described below.
Anti-angiotensin I antibody (Peninsula Laboratories Inc.) diluted 5,000-fold with PBS was added to each well of a 384 well black plate (Nalge Nunc International Co., Ltd.) by 25 μl, and left standing overnight at 4° C. to immobilize the antibody in the plate. The antibody solution was removed, PBS solution (100 μl) containing 1% BSA was added to each well, and the mixture was left standing at room temperature for 2 hr for blocking. The blocking solution was removed, and each well was washed 5 times with 100 μl of 0.05% Tween20-PBS. […] Then, a biotinated angiotensin I solution (AnaSpec, 15 μl) prepared to 1.6 nM with a buffer [20 mM tris-hydrochloric acid (pH 7.4), 150 mM sodium chloride, 0.01% BSA, 0.05% Tween20] was added to each well, mixed with a plate mixer and left standing at room temperature for 1 hr. The solutions were removed from each well, and each well was washed 5 times with 100 μl of 0.05% Tween20-PBS. Horseradish peroxydase Streptavidin (PIERCE Biotecnology inc., 25 μl) diluted to 100 ng/ml with a buffer [20 mM tris-hydrochloric acid (pH 7.4), 150 mM sodium chloride, 0.1% BSA, 0.05% Tween 20] was added to each well and the mixture was left standing at room temperature for 30 min. The solutions were removed from each well, and each well was washed 5 times with 100 μl of 0.05% Tween20-PBS. SuperSignal ELISA femto Maximum Sensitivity Substrate (PIERCE Biotecnology Inc.) was added by 25 μl and luminescence intensity was measured by EnVision (Perkin Elmer Inc.). An analytical curve was drawn from the luminescence intensity of wells containing an angiotensin I standard solution, and the amount of angiotensin I produced by an enzyme reaction was calculated and used as an index of renin activity.

First: COCCCCn1c(C(=O)N(CC(C)C)[C@@H]2CNC[C@H]([C@H](C)O)C2)nc2ccccc21.Cl.Cl [Example 74-1, N-{(3S,5R)-5-[(1S)-1-hydroxyethyl]piperidin-3-yl}-1-(4-methoxybutyl)-N-(2-methylpropyl)-1H-benzimidazole-2-carboxamide dihydrochloride]
Second: COCCCCn1c(C(=O)N(CC(C)C)[C@@H]2CNC[C@H]([C@@H](C)O)C2)nc2ccccc21.Cl.Cl [Example 74-2, N-{(3S,5R)-5-[(1R)-1-hydroxyethyl]piperidin-3-yl}-1-(4-methoxybutyl)-N-(2-methylpropyl)-1H-benzimidazole-2-carboxamide dihydrochloride]
The inhibition at 0.1 µM of the first is lower: 94% for the first, 96% for the second.

First: CC[C@H](O)[C@H]1CNC[C@@H](N(CC(C)C)C(=O)c2nc3ccccc3n2CCCCOC)C1.Cl.Cl [Example 75-1, N-{(3S,5R)-5-[(1S)-1-hydroxypropyl]piperidin-3-yl}-1-(4-methoxybutyl)-N-(2-methylpropyl)-1H-benzimidazole-2-carboxamide dihydrochloride]
Second: CC[C@@H](O)[C@H]1CNC[C@@H](N(CC(C)C)C(=O)c2nc3ccccc3n2CCCCOC)C1.Cl.Cl [Example 75-2, N-{(3S,5R)-5-[(1R)-1-hydroxypropyl]piperidin-3-yl}-1-(4-methoxybutyl)-N-(2-methylpropyl)-1H-benzimidazole-2-carboxamide dihydrochloride]
The inhibition at 0.1 µM of the first is higher: 95% for the first, 90% for the second.

The compounds below were run against T2, plasma renin activity (PRA) (Macaca fascicularis, UniProt Q6DLS0) (assay: not given). Settings: male Macaca fascicularis; 1 mg/kg orally in 0.5% methylcellulose; plasma 4 hr after administration; amended with vehicle group.
T2 sequence (Q6DLS0 67-406): T1 sequence (P00797 67-406) with T2A, I148L, S169A

First: COCCCCn1c(C(=O)N(CC(C)C)[C@@H]2CNC[C@H](C(=O)OCc3oc(=O)oc3C)C2)nc2ccccc21 [Example 7, (5-methyl-2-oxo-1,3-dioxol-4-yl)methyl (3R,5S)-5-[{[1-(4-methoxybutyl)-1H-benzimidazol-2-yl]carbonyl}(2-methylpropyl)amino]piperidine-3-carboxylate dihydrochloride]
Second: COCCCCn1c(C(=O)N(CC(C)C)[C@@H]2CNC[C@H](C(N)=O)C2)nc2ccccc21 [Example 25, N-[(3S,5R)-5-carbamoylpiperidin-3-yl]-1-(4-methoxybutyl)-N-(2-methylpropyl)-1H-benzimidazole-2-carboxamide dihydrochloride]
The “Macaca fascicularis plasma renin activity: PPA inhibitory activity (%, n = 3-7)” value of the first is higher: 93% for the first, 79% for the second.

First: COCCCCn1c(C(=O)N(CC(C)C)[C@@H]2CNC[C@H](C(=O)N3CCOCC3)C2)nc2ccccc21 [Example 10, 1-(4-methoxybutyl)-N-(2-methylpropyl)-N-[(3S,5R)-5-(morpholin-4-ylcarbonyl)piperidin-3-yl]-1H-benzimidazole-2-carboxamide dihydrochloride]
Second: COCCCCn1c(C(=O)N(CC(C)C)[C@@H]2CNC[C@H](C(=O)N3CCOCC3)C2)nc2ccc(F)cc21 [Example 11, 6-fluoro-1-(4-methoxybutyl)-N-(2-methylpropyl)-N-[(3S,5R)-5-(morpholin-4-ylcarbonyl)piperidin-3-yl]-1H-benzimidazole-2-carboxamide dihydrochloride]
The “Macaca fascicularis plasma renin activity: PPA inhibitory activity (%, n = 3-7)” value of the first is lower: 72% for the first, 89% for the second.

First: COCCCCn1c(C(=O)N(CC(C)C)[C@@H]2CNC[C@H](C(=O)N3CCCC3)C2)nc2cc(F)ccc21 [Example 18, 5-fluoro-1-(4-methoxybutyl)-N-(2-methylpropyl)-N-[(3S,5R)-5-(pyrrolidin-1-ylcarbonyl)piperidin-3-yl]-1H-benzimidazole-2-carboxamide dihydrochloride]
Second: COCCCCn1c(C(=O)N(CC(C)C)[C@@H]2CNC[C@H](C(=O)N3CCCC3)C2)nc2ccc(OC)cc21 [Example 62, 6-methoxy-1-(4-methoxybutyl)-N-(2-methylpropyl)-N-{(3S,5R)-5-(pyrrolidin-1-ylcarbonyl)piperidin-3-yl}-1H-benzimidazole-2-carboxamide dihydrochloride]
The “Macaca fascicularis plasma renin activity: PPA inhibitory activity (%, n = 3-7)” value of the first is higher: 89% for the first, 75% for the second.

Compared with `COCCCCn1c(C(=O)N(CC(C)C)[C@@H]2CNC[C@H](C(=O)N3CCCCC3)C2)nc2ccccc21` [Example 21, 1-(4-methoxybutyl)-N-(2-methylpropyl)-N-[(3S,5R)-5-(piperidin-1-ylcarbonyl)piperidin-3-yl]-1H-benzimidazole-2-carboxamide dihydrochloride], `COCCCCn1c(C(=O)N(CC(C)C)[C@@H]2CNC[C@H](C(=O)O)C2)nc2ccccc21` [Example 33, (3R,5S)-5-[{[1-(4-methoxybutyl)-1H-benzimidazol-2-yl]carbonyl}(2-methylpropyl)amino]piperidine-3-carboxylic acid dihydrochloride] is lower in “Macaca fascicularis plasma renin activity: PPA inhibitory activity (%, n = 3-7)” value: 85% for the first, 77% for the second.

Going from `COCCCCn1c(C(=O)N(CC(C)C)[C@@H]2CNC[C@H](CO)C2)nc2ccccc21` [Example 40, N-[(3S,5R)-5-(hydroxymethyl)piperidin-3-yl]-1-(4-methoxybutyl)-N-(2-methylpropyl)-1H-benzimidazole-2-carboxamide dihydrochloride] to `COCCCCn1c(C(=O)N(CC(C)C)[C@@H]2CNC[C@H](C(C)O)C2)nc2ccccc21` (stereo partly drawn) [Example 42, N-[(3S,5R)-5-(1-hydroxyethyl)piperidin-3-yl]-1-(4-methoxybutyl)-N-(2-methylpropyl)-1H-benzimidazole-2-carboxamide dihydrochloride], the “Macaca fascicularis plasma renin activity: PPA inhibitory activity (%, n = 3-7)” value falls from 75% to 70%.

Compared with `COCCCCn1c(C(=O)N(CC(C)C)[C@@H]2CNC[C@H](C(O)COC)C2)nc2ccccc21` (stereo partly drawn) [Example 48, N-[(3S,5R)-5-(1-hydroxy-2-methoxyethyl)piperidin-3-yl]-1-(4-methoxybutyl)-N-(2-methylpropyl)-1H-benzimidazole-2-carboxamide dihydrochloride], `COCCCCn1c(C(=O)N(CC(C)C)[C@@H]2CNC[C@H]([C@@H](O)COC)C2)nc2ccccc21.Cl.Cl` [Example 73-1, N-{(3S,5R)-5-[(1R)-1-hydroxy-2-methoxyethyl]piperidin-3-yl}-1-(4-methoxybutyl)-N-(2-methylpropyl)-1H-benzimidazole-2-carboxamide dihydrochloride] is lower in “Macaca fascicularis plasma renin activity: PPA inhibitory activity (%, n = 3-7)” value: 78% for the first, 77% for the second.

First: COCCCCn1c(C(=O)N(CC(C)C)[C@@H]2CNC[C@H](C(=O)N3CCOCC3)C2)nc2ccc(OC)cc21 [Example 60, 6-methoxy-1-(4-methoxybutyl)-N-(2-methylpropyl)-N-{(3S,5R)-5-(morpholin-4-ylcarbonyl)piperidin-3-yl}-1H-benzimidazole-2-carboxamide dihydrochloride]
Second: COCCCCn1c(C(=O)N(CC2CC2)[C@@H]2CNC[C@H](C(=O)N3CCOCC3)C2)nc2ccccc21 [Example 253, N-(cyclopropylmethyl)-1-(4-methoxybutyl)-N-[(3S,5R)-5-(morpholin-4-ylcarbonyl)piperidin-3-yl]-1H-benzimidazole-2-carboxamide dihydrochloride]
The “Macaca fascicularis plasma renin activity: PPA inhibitory activity (%, n = 3-7)” value of the first is higher: 85% for the first, 77% for the second.

Compared with `COCCCCn1c(C(=O)N(CC(C)C)[C@@H]2CNC[C@H]([C@H](O)COC)C2)nc2ccccc21.Cl.Cl` [Example 73-2, N-{(3S,5R)-5-[(1S)-1-hydroxy-2-methoxyethyl]piperidin-3-yl}-1-(4-methoxybutyl)-N-(2-methylpropyl)-1H-benzimidazole-2-carboxamide dihydrochloride], `CC[C@H](O)[C@H]1CNC[C@@H](N(CC(C)C)C(=O)c2nc3ccccc3n2CCCCOC)C1.Cl.Cl` [Example 75-1, N-{(3S,5R)-5-[(1S)-1-hydroxypropyl]piperidin-3-yl}-1-(4-methoxybutyl)-N-(2-methylpropyl)-1H-benzimidazole-2-carboxamide dihydrochloride] is lower in “Macaca fascicularis plasma renin activity: PPA inhibitory activity (%, n = 3-7)” value: 90% for the first, 86% for the second.

Compared with `COCCCCn1c(C(=O)N(CC(C)C)[C@@H]2CNC[C@H]([C@H](C)O)C2)nc2ccccc21.Cl.Cl` [Example 74-1, N-{(3S,5R)-5-[(1S)-1-hydroxyethyl]piperidin-3-yl}-1-(4-methoxybutyl)-N-(2-methylpropyl)-1H-benzimidazole-2-carboxamide dihydrochloride], `COCCCCn1c(C(=O)N(CC(C)C)[C@@H]2CNC[C@H]([C@@H](C)O)C2)nc2ccccc21.Cl.Cl` [Example 74-2, N-{(3S,5R)-5-[(1R)-1-hydroxyethyl]piperidin-3-yl}-1-(4-methoxybutyl)-N-(2-methylpropyl)-1H-benzimidazole-2-carboxamide dihydrochloride] is lower in “Macaca fascicularis plasma renin activity: PPA inhibitory activity (%, n = 3-7)” value: 90% for the first, 54% for the second.

Going from `CC[C@@H](O)[C@H]1CNC[C@@H](N(CC(C)C)C(=O)c2nc3ccccc3n2CCCCOC)C1.Cl.Cl` [Example 75-2, N-{(3S,5R)-5-[(1R)-1-hydroxypropyl]piperidin-3-yl}-1-(4-methoxybutyl)-N-(2-methylpropyl)-1H-benzimidazole-2-carboxamide dihydrochloride] to `CCC(O)[C@H]1CNC[C@@H](N(CC(C)C)C(=O)c2nc3ccccc3n2CCCCOC)C1` (stereo partly drawn) [Example 76, N-[(3S,5R)-5-(1-hydroxypropyl)piperidin-3-yl]-1-(4-methoxybutyl)-N-(2-methylpropyl)-1H-benzimidazole-2-carboxamide dihydrochloride], the “Macaca fascicularis plasma renin activity: PPA inhibitory activity (%, n = 3-7)” value rises from 71% to 79%.

First: COCCCCc1c(C(=O)N(CC(C)C)[C@@H]2CNC[C@H](C(=O)N3CCOCC3)C2)nnn1-c1ccccc1F.Cl [Example 233, 1-(2-fluorophenyl)-5-(4-methoxybutyl)-N-(2-methylpropyl)-N-[(3S,5R)-5-(morpholin-4-ylcarbonyl)piperidin-3-yl]-1H-1,2,3-triazole-4-carboxamide hydrochloride]
Second: COCCCCc1c(C(=O)N(CC(C)C)[C@@H]2CNC[C@H](C(=O)N3CCOCC3)C2)nnn1-c1ccccc1Cl.Cl [Example 235, 1-(2-chlorophenyl)-5-(4-methoxybutyl)-N-(2-methylpropyl)-N-[(3S,5R)-5-(morpholin-4-ylcarbonyl)piperidin-3-yl]-1H-1,2,3-triazole-4-carboxamide hydrochloride]
The “Macaca fascicularis plasma renin activity: PPA inhibitory activity (%, n = 3-7)” value of the first is higher: 67% for the first, 62% for the second.
